# According to patent US10155788B2, “Cationic steroidal antimicrobial prodrug compositions and uses thereof” (BRIGHAM YOUNG UNIVERSITY, priority 2014, dated 2018):
# Experiments:
# [1] = test system: ATCC 25923 strain of staphylococcus aureus; test: Minimum inhibitory concentration against staph A; type: cell-based; settings: ATCC25923; staphylococcus aureus ATCC 25923
# Description: The pharmacological analysis of the methane sulfonate prodrug of CSA-13 (CSA-13 MS) versus the free base CSA-13 compound was assessed for their antimicrobial properties against the ATCC 25923 strain of staphylococcus aureus (hereinafter “staph A”).
# C57BL/6 female mice = test: Maximum Tolerated Dose study of CSA-192 MS, intravenous, in mice; type: in vivo; settings: for mortality and abnormal clinical signs: 7 days observation
# Text: The objective of this study was to determine the Maximum Tolerated Dose (MTD) of CSA-192 MS following intravenous (i.v.) administration at various dose levels in C57BL/6 female mice. FIG. 2 is a graph showing CSA-192 MS Kinetics.
# Immunocompetent C57BL/6 female mice weighing 16 to 20 g were obtained from the University of Sevilla's facility. The number of animals that were selected for use in this study was considered to be the minimum requirement to meet rational scientific endpoints.
# One the first day of the study, mice were subjected to randomization and allocated to different groups, so that each group (G) contains 6 females. Each cage housed 6 mice. Each cage was identified by a cage card, with details like study item, species, strain, sex, number of animals, date, dose, and investigator name.
# The study was conducted at four different dose levels. On day 1 of treatment all the animals in G1, G2, G3, and G4 groups were administered with CSA-192 MS at 4, 8, 16, and 32 mg/kg based on their body weight. Dose volumes were maintained at 0.2 mL for G1, G2, and G3. The dose volume for G4 was 0.32 mL.
# More particularly, the test item was administered by intravenous route, at dose concentration of 4 mg/kg body weight for G1, 8 mg/kg body weight for G2, 16 mg/kg body weight for G3, and 32 mg/kg body weight G4 groups, respectively. Dose volumes were maintained at 0.2 mL for G1, G2, and G3. For group G4 the dose volume was 0.32 mL.
# The first day they were checked immediately after dose administration, at 30 min, 1 hour, and every 4 hours, the following days twice a day. Mice were sacrificed on day 7 of the study period.
smiles,measurement,setting,value
CCCCCCCCNCCC[C@@H](C)[C@H]1CC[C@H]2[C@@H]3[C@H](OCCCN)C[C@@H]4C[C@H](OCCCN)CC[C@]4(C)[C@H]3C[C@H](OCCCN)[C@]12C [CSA-13],MIC,[1],1.6 µg/mL
CCCCCCCCNC(=O)CC[C@@H](C)[C@H]1CC[C@H]2[C@@H]3[C@H](OCCCN)C[C@@H]4C[C@H](OCCCN)CC[C@]4(C)[C@H]3C[C@H](OCCCN)[C@]12C [CSA-192 MS],mortality and abnormal clinical signs,"C57BL/6 female mice; 4.0 mg/kg body weight (G1), intravenously",no incidences of mortality and abnormal clinical signs
same,mortality and abnormal clinical signs,"C57BL/6 female mice; 8.0 mg/kg body weight (G2), intravenously",no incidences of mortality and abnormal clinical signs
same,clinical signs,"C57BL/6 female mice; 16.0 mg/kg body weight (G3), intravenously, immediately after administration, disappeared after an hour, rest of G3 without signs",one animal showed signs of somnolence
same,mortality and abnormal clinical signs,"C57BL/6 female mice; 32.0 mg/kg body weight (G4), intravenously",no incidences of mortality and abnormal clinical signs
same,Clinical observations/No of animals per group,"C57BL/6 female mice; G1 4 mg/Kg i.v., Day 1",0/6
same,No of animals found dead/No. of animals per group,"C57BL/6 female mice; G1 4 mg/Kg i.v., Day 1",0/6
same,Clinical observations/No of animals per group,"C57BL/6 female mice; G1 4 mg/Kg i.v., Day 2",0/6
same,No of animals found dead/No. of animals per group,"C57BL/6 female mice; G1 4 mg/Kg i.v., Day 2",0/6
same,Clinical observations/No of animals per group,"C57BL/6 female mice; G1 4 mg/Kg i.v., Day 3",0/6
same,No of animals found dead/No. of animals per group,"C57BL/6 female mice; G1 4 mg/Kg i.v., Day 3",0/6
same,Clinical observations/No of animals per group,"C57BL/6 female mice; G1 4 mg/Kg i.v., Day 4",0/6
same,No of animals found dead/No. of animals per group,"C57BL/6 female mice; G1 4 mg/Kg i.v., Day 4",0/6
same,Clinical observations/No of animals per group,"C57BL/6 female mice; G1 4 mg/Kg i.v., Day 5",0/6
same,No of animals found dead/No. of animals per group,"C57BL/6 female mice; G1 4 mg/Kg i.v., Day 5",0/6
same,Clinical observations/No of animals per group,"C57BL/6 female mice; G1 4 mg/Kg i.v., Day 6",0/6
same,No of animals found dead/No. of animals per group,"C57BL/6 female mice; G1 4 mg/Kg i.v., Day 6",0/6
same,Clinical observations/No of animals per group,"C57BL/6 female mice; G1 4 mg/Kg i.v., Day 7",0/6
same,No of animals found dead/No. of animals per group,"C57BL/6 female mice; G1 4 mg/Kg i.v., Day 7",0/6
same,Clinical observations/No of animals per group,"C57BL/6 female mice; G2 8 mg/kg i.v., Day 1",0/6
same,No of animals found dead/No. of animals per group,"C57BL/6 female mice; G2 8 mg/kg i.v., Day 1",0/6
same,Clinical observations/No of animals per group,"C57BL/6 female mice; G2 8 mg/kg i.v., Day 2",0/6
same,No of animals found dead/No. of animals per group,"C57BL/6 female mice; G2 8 mg/kg i.v., Day 2",0/6
same,Clinical observations/No of animals per group,"C57BL/6 female mice; G2 8 mg/kg i.v., Day 3",0/6
same,No of animals found dead/No. of animals per group,"C57BL/6 female mice; G2 8 mg/kg i.v., Day 3",0/6
same,Clinical observations/No of animals per group,"C57BL/6 female mice; G2 8 mg/kg i.v., Day 4",0/6
same,No of animals found dead/No. of animals per group,"C57BL/6 female mice; G2 8 mg/kg i.v., Day 4",0/6
same,Clinical observations/No of animals per group,"C57BL/6 female mice; G2 8 mg/kg i.v., Day 5",0/6
same,No of animals found dead/No. of animals per group,"C57BL/6 female mice; G2 8 mg/kg i.v., Day 5",0/6
same,Clinical observations/No of animals per group,"C57BL/6 female mice; G2 8 mg/kg i.v., Day 6",0/6
same,No of animals found dead/No. of animals per group,"C57BL/6 female mice; G2 8 mg/kg i.v., Day 6",0/6
same,Clinical observations/No of animals per group,"C57BL/6 female mice; G2 8 mg/kg i.v., Day 7",0/6
same,No of animals found dead/No. of animals per group,"C57BL/6 female mice; G2 8 mg/kg i.v., Day 7",0/6
same,Clinical observations/No of animals per group,"C57BL/6 female mice; G3 16 mg/kg i.v., Day 1",1/6
same,No of animals found dead/No. of animals per group,"C57BL/6 female mice; G3 16 mg/kg i.v., Day 1",0/6
same,Clinical observations/No of animals per group,"C57BL/6 female mice; G3 16 mg/kg i.v., Day 2",0/6
same,No of animals found dead/No. of animals per group,"C57BL/6 female mice; G3 16 mg/kg i.v., Day 2",0/6
same,Clinical observations/No of animals per group,"C57BL/6 female mice; G3 16 mg/kg i.v., Day 3",0/6
same,No of animals found dead/No. of animals per group,"C57BL/6 female mice; G3 16 mg/kg i.v., Day 3",0/6
same,Clinical observations/No of animals per group,"C57BL/6 female mice; G3 16 mg/kg i.v., Day 4",0/6
same,No of animals found dead/No. of animals per group,"C57BL/6 female mice; G3 16 mg/kg i.v., Day 4",0/6
same,Clinical observations/No of animals per group,"C57BL/6 female mice; G3 16 mg/kg i.v., Day 5",0/6
same,No of animals found dead/No. of animals per group,"C57BL/6 female mice; G3 16 mg/kg i.v., Day 5",0/6
same,Clinical observations/No of animals per group,"C57BL/6 female mice; G3 16 mg/kg i.v., Day 6",0/6
same,No of animals found dead/No. of animals per group,"C57BL/6 female mice; G3 16 mg/kg i.v., Day 6",0/6
same,Clinical observations/No of animals per group,"C57BL/6 female mice; G3 16 mg/kg i.v., Day 7",0/6
same,No of animals found dead/No. of animals per group,"C57BL/6 female mice; G3 16 mg/kg i.v., Day 7",0/6
same,Clinical observations/No of animals per group,"C57BL/6 female mice; G4 32 mg/kg i.v., Day 1",0/6
same,No of animals found dead/No. of animals per group,"C57BL/6 female mice; G4 32 mg/kg i.v., Day 1",0/6
same,Clinical observations/No of animals per group,"C57BL/6 female mice; G4 32 mg/kg i.v., Day 2",0/6
same,No of animals found dead/No. of animals per group,"C57BL/6 female mice; G4 32 mg/kg i.v., Day 2",0/6
same,Clinical observations/No of animals per group,"C57BL/6 female mice; G4 32 mg/kg i.v., Day 3",0/6
same,No of animals found dead/No. of animals per group,"C57BL/6 female mice; G4 32 mg/kg i.v., Day 3",0/6
same,Clinical observations/No of animals per group,"C57BL/6 female mice; G4 32 mg/kg i.v., Day 4",0/6
same,No of animals found dead/No. of animals per group,"C57BL/6 female mice; G4 32 mg/kg i.v., Day 4",0/6
same,Clinical observations/No of animals per group,"C57BL/6 female mice; G4 32 mg/kg i.v., Day 5",0/6
same,No of animals found dead/No. of animals per group,"C57BL/6 female mice; G4 32 mg/kg i.v., Day 5",0/6
same,Clinical observations/No of animals per group,"C57BL/6 female mice; G4 32 mg/kg i.v., Day 6",0/6
same,No of animals found dead/No. of animals per group,"C57BL/6 female mice; G4 32 mg/kg i.v., Day 6",0/6
same,Clinical observations/No of animals per group,"C57BL/6 female mice; G4 32 mg/kg i.v., Day 7",0/6
same,No of animals found dead/No. of animals per group,"C57BL/6 female mice; G4 32 mg/kg i.v., Day 7",0/6
same,treatment related change in body weight,"C57BL/6 female mice; all groups (4, 8, 16, 32 mg/kg i.v.)",No treatment related change in body weight was observed
same,mortality,"C57BL/6 female mice; any of the groups (4, 8, 16, 32 mg/kg i.v.), 7 days",no mortality was observed
